# Experimental data as given in patent US4120895A, “S-phenenyltris (iminocarbonyl) triisophthalic acid salts” (American Cyanamid Company, priority 1977, dated 1978).
# Structures can show the parent of a compound that is named as a salt.
# Columns and labels:
# activated human C1 = molecular target: T1, activated human C1 (Homo sapiens, UniProt P09871); test: Test, Code 026 (C1 inhibitor); format: biochemical
# T1 construct: fluid-phase human C2 consumption in presence of C4
# Source text: An active inhibitor protects C2 from C1 and C4; (ii) Test, Code 035 (C3-C9 inhibitor)-This test determines the ability of the late components of human complement (C3-C9) to lyse EAC 142 in the presence of appropriate dilutions of the test compound. An active inhibitor protects EAC 142 from lysis by human C3-C9; (iii) Test, Code 036 (C-Shunt inhibitor) - In this test human erythrocytes rendered fragile are lysed in autologous serum via the shunt pathway activated by cobra venom factor in the presence of appropriate dilutions of the test compound. Inhibition of the shunt pathway results in failure of lysis; (iv) Forssman Vasculitis Test -- Here, the well known complement dependent lesion, Forssman vasculitis, is produced in guinea pigs by intradermal injection of rabbit anti-Forssman antiserum. The lesion is measured in terms of diameter, edema and hemorrhage and the extent to which a combined index of these is inhibited by prior intraperitoneal injection of the test compound at 200 mg/kg is then reported, unless otherwise stated; (v) Forssman Shock Test -- Lethal shock is produced in guinea pigs by an i.v. injection of anti-Forssman antiserum and the harmonic mean death time of treated guinea pigs is compared with that of simultaneous controls; (vi) Complement Level Reduction Test -- In this test, the above dosed guinea pigs, or others, are bled for serum and the complement level is determined in undiluted serum by the capillary tube method of U.S. Pat. No. 3,876,376 and compared to undosed control guinea pigs; and (vii) Cap 50 Test -- Here, appropriate amounts of the test compound are added to a pool of guinea pig serum in vitro, after which the undiluted serum capillary tube assay referred to above is run. The concentration of compound inhibiting 50% is reported.
# [1] = system: Citrated sheep plasma (CSP); test: in vitro anti-coagulant activity (AC); format: biochemical
# Protocol: The sheep RBC's, kept in suspension throughout the clotting incubation time, become enmeshed in the fibrin matrix if a clot forms. Upon centrifugation of the plate, untrapped RBC's form buttons, the sizes of which correspond to the degree of clot inhibition; this providing a measure of anti-coagulant activity (AC). Sodium heparin is used as a positive control and activity is reported in wells appearing in Table I.
# T1 sequence (P09871 16-688): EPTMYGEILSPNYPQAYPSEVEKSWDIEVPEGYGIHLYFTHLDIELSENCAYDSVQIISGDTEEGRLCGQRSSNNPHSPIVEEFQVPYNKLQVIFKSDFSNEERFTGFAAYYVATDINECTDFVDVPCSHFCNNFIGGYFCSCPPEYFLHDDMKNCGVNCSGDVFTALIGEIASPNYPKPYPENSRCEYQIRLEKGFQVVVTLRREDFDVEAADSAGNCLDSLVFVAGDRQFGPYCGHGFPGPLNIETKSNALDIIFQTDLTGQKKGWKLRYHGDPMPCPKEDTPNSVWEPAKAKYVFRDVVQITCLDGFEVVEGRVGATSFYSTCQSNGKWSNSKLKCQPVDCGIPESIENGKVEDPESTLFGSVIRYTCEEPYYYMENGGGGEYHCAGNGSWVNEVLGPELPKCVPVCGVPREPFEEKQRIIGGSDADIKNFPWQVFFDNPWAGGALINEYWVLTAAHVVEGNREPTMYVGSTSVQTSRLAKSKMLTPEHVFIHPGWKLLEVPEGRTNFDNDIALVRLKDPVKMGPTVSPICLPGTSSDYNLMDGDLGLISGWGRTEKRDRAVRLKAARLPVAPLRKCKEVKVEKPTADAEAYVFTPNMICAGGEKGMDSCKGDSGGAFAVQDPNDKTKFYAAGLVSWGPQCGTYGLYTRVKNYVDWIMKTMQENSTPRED
# T1 sequence (P00736 18-705 partner): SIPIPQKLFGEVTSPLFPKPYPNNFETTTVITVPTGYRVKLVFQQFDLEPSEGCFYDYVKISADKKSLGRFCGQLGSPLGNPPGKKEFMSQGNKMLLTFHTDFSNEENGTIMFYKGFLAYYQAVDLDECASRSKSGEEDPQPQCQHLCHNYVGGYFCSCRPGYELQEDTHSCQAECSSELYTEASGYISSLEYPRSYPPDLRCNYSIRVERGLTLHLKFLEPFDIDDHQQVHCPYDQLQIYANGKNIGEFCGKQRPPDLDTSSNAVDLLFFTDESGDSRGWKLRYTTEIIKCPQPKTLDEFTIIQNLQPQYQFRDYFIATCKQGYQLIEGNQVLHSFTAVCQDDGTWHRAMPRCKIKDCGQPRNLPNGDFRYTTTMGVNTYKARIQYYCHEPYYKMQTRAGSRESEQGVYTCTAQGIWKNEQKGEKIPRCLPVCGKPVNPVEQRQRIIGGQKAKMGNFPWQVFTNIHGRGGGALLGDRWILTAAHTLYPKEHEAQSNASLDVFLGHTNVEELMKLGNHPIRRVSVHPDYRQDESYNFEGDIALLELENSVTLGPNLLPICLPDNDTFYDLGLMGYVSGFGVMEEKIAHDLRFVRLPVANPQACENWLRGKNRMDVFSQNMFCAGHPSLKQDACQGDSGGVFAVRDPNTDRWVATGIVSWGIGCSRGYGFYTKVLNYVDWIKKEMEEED
# T1 sequence (P02745 23-245 partner): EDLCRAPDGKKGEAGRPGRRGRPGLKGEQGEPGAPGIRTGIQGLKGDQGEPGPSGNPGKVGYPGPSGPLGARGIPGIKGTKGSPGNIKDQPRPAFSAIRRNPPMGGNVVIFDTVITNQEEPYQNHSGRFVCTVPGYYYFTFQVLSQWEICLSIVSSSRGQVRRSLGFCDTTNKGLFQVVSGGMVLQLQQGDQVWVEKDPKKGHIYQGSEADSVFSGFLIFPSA
# T1 sequence (P02746 28-253 partner): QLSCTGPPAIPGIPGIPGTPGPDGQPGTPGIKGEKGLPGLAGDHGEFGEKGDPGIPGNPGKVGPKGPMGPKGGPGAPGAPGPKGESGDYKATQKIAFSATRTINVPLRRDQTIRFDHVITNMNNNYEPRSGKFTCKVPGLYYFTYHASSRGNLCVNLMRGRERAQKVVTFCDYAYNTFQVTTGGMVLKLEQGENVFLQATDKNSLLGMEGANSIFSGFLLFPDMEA
# T1 sequence (P02747 29-245 partner): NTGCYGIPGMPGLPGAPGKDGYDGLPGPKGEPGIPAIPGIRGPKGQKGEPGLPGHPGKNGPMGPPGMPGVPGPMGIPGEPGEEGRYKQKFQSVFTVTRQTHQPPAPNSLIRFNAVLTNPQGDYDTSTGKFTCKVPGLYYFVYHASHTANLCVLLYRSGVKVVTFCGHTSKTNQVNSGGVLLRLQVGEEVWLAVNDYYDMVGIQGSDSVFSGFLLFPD
compound,measurement,setting,value
"O=C(O)c1cc(C(=O)O)cc(C(=O)Nc2cc(NC(=O)c3cc(C(=O)O)cc(C(=O)O)c3)cc(NC(=O)c3cc(C(=O)O)cc(C(=O)O)c3)c2)c1 [5,5',5""-[s-Phenenyltris(iminocarbonyl)]triisophthalic acid hexasodium salt]",Cl 026 Wells,"activated human C1; Table I, two-fold serial dilution assay, higher well number indicates higher activity",+3 Wells
same,"In Vitro Activity, Complement Inhibiting Activity (Wells) Code 026",activated human C1; Table II,+3 Wells
same,Logarithmic Difference Expressed as Wells,"activated human C1; Table II, Code 026 wells minus AC wells (base 2)",+5 Wells
same,AC Wells,"[1]; Table I, clot inhibition, recalcified citrated sheep plasma with sheep RBC, serial dilutions",< -2 Wells
same,"In Vitro Activity, Anti-Coagulant Activity (Wells) AC",[1]; Table II,-2 Wells
